From patent US20050107616A1, “Alpha-ketoamide derivatives as cathepsin k inhibitors” (priority 2001, published 2005) come the findings set out here.

For orientation: Ki means the dissociation constant of the complex between target and ligand, obtained from inhibition or displacement.

This assay deals with T1, human cathepsin K (Homo sapiens, UniProt P43235).
T1 construct: The proform of cathepsin K was converted to mature cathepsin K by brief exposure to pH 4; made in house; host or cells: baculovirus; Trichoplusia ni High Five cells (virus raised in Sf-9)
T1 sequence (P43235 115-329): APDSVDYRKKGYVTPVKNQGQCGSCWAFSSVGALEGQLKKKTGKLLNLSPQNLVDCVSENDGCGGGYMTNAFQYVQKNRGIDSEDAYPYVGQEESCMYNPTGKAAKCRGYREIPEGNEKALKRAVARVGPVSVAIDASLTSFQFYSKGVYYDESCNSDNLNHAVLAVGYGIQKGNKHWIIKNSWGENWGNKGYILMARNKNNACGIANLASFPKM
Nature of the assay: Cathepsin K inhibition assay, fluorogenic substrate Cbz-Phe-Arg-AMC, progress curve method. The format is biochemical. The following applies: Table 1; human recombinant enzyme, pH 5.5, 30° C., 10 μM substrate; read-out: hCat K Ki. The procedure: All assays for cathepsin K were carried out with human and rat recombinant enzyme. Assays for cathepsins S Et V were also carried out with human recombinant enzyme. Assays for human cathepsins B. H. and L were carried out with enzyme, purchased from Athens Research and Technology, Inc., prepared from human liver tissue. […] A stock substrate solution of Cbz-Phe-Arg-AMC was prepared at a concentration of 50 mM in dimethyl sulfoxide. This substrate was diluted into the assay for a final substrate concentration of 10 μM in the rat cathepsin K, human cathepsin K, and human cathepsin B assays; a final substrate concentration of 5 μM in the human cathepsin L assay; and a final substrate concentration of 2 μM in the human cathepsin V assay.
All assays contained 10% dimethyl sulfoxide. […] All assays were conducted at 30° C. Product fluorescence (excitation at 360 nm; emission at 440 nm, (except cathepsin H which used excitation at 340 nm; emission at 420 nm)) was monitored with a PerSeptive Biosystems Cytofluor II fluorescence plate reader. Product progress curves were generated over 2.3 h monitoring the formation of 7-amino-4-methylcoumarin product (or β-naphthalamide for cathepsin H).
Two liters of Spodoptera frugiperda (Sf-9) cells (ATCC) were grown in Grace's Supplemented medium (Life Technologies) supplemented with 2 g/L glucose, 10% a fetal bovine serum (HyClone) and 0.10% pluronic F-68 (Life Technologies). […] The cells continued to grow for 72 h post-infection, before the virus was harvested by centrifugation at 1400× g for 30 min.
One and one-half liters of Trichoplusia ni (T. ni) High Five (TM) cells [JRH Biosciences, Woodland, Calif. […] Media were separated from cells at a rate of 1 L/min using the Centritech 100 (TM) continuous-flow centrifuge (DuPont) operating at 200× g.
Protein Purification: Media (human and rat) were filtered through a Whatman 3 filter, and then loaded onto a 25 mL Poros HS II (26 mm×47 mm) cation exchange column equilibrated in 25 mM sodium acetate at pH 5.5 (equilibration buffer). The column was washed until the absorbance reached the baseline value, and then the protein was eluted with a linear gradient from 0-2 M sodium chloride in the equilibration buffer. Column fractions were analyzed by SDS-PAGE, N-terminal sequencing, and mass spectrometry. Fractions containing the proform of cathepsin K were pooled and frozen at −80° C. The proform was concentrated in an Amicon Centriprep 10 and fractionated with a Superdex 75 column (26 mm×600 mm, Pharmacia) equilibrated in 400 mM sodium chloride, 25 mM sodium acetate at pH 5.5.
Cathepsin K Activation: The proform of cathepsin K was converted to mature cathepsin K by brief exposure to pH 4 in the presence of 5 mM L-cysteine. Typically, 5 mM L-cysteine was added to 10 mL of approximately 1 mg/mL procathepsin K. One mL of this solution was diluted ten-fold into 450 mM sodium acetate at pH 4.0 containing 5 mM L-cysteine. This solution was reacted at 23° C. for 2 min before neutralization with 2 mL 1.8 M sodium acetate at pH 6.0. The neutralized sample was added to the remaining 9 mL of procathepsin K. The mixture was incubated at 4° C. for 2-3 days. The activated cathepsin K was chromatographed on a Poros HS II column as described above.
Potential inhibitors were evaluated using the progress curve method. Assays were carried out in the presence of variable concentrations of test compound. Reactions were initiated by addition of buffered solutions of inhibitor and substrate to enzyme. Data analysis was conducted according to one of two procedures depending on the appearance of the progress curves in the presence of inhibitors. […] Ki values were calculated from IC50 values using equation 2 assuming a competitive model. [formula]
Regarding `CCCC[C@H](NC(=O)O[C@@H](c1nc2c(OCC)ccc(OCC)c2n1C)C(C)(C)C)C(=O)C(=O)Nc1ccn[nH]1` [Example 43], the Ki was in the range of 100 to 10000 nM. Next, `CCCC[C@H](NC(=O)O[C@H](c1nnc(-c2cccnc2)o1)C(C)(C)C)C(=O)C(=O)Nc1ccn[nH]1` [Example 52, (1S)-2,2-dimethyl-1-[5-(3-pyridinyl)-1,3,4-oxadiazol-2-yl]propyl(1S)-1-[oxo(1H-pyrazol-5-ylamino)acetyl]pentylcarbamate]: 0.01 to 1 nM; `CCCC[C@H](NC(=O)O[C@H](Cn1cc(-c2ccc(C(F)(F)F)cc2)cn1)C(C)(C)C)C(=O)C(=O)Nc1ccn[nH]1` [Example 14, (1S)-2,2-dimethyl-1-({4-[4-(trifluoromethyl)phenyl]-1H-pyrazol-1-yl}methyl)propyl(1S)-1-[oxo(1H-pyrazol-5-ylamino)acetyl]pentylcarbamate]: 0.01 to 1 nM; `CCCC[C@H](NC(=O)O[C@H](COc1ccc(-n2ccnc2)cc1)C(C)(C)C)C(=O)C(=O)Nc1ccn[nH]1` [Example 49, (1S)-1-{[4-(1H-imidazol-1-yl)phenoxy]methyl}-2,2-dimethylpropyl(1S)-1-[oxo(1H-pyrazol-5-ylamino)acetyl]pentylcarbamate]: 0.01 to 1 nM. `CCCC[C@H](NC(=O)O[C@@H](Cc1nnc(-c2ccccc2)o1)C(C)(C)CC)C(=O)C(=O)N[C@H](C)c1ccccc1` [Example 9, (1S)-2,2-dimethyl-1-[(5-phenyl-1,3,4-oxadiazol-2-yl)methyl]butyl(1S)-1-(oxo{[(1R)-1-phenylethyl]amino}acetyl)pentylcarbamate]: the Ki lay in the range of 100 to 10000 nM.

Take `CCCC[C@H](NC(=O)O[C@H](c1cccc(-c2ccccc2)c1)C(C)(C)C)C(=O)C(=O)Nc1ccn[nH]1` [Example 42, (1S)-1-[1,1′-biphenyl]-3-yl-2,2-dimethylpropyl(1S)-1-[oxo(1H-pyrazol-5-ylamino)acetyl]pentylcarbamate]: the Ki lay within 0.01 to 1 nM. In the case of `CCCC[C@H](NC(=O)O[C@H](Cn1nccc1-c1ccc(C(F)(F)F)cc1)C(C)(C)C)C(=O)C(=O)Nc1ccn[nH]1` [Example 30, (1S)-2,2-dimethyl-1-({5-[4-(trifluoromethyl)phenyl]-1H-pyrazol-1-yl}methyl)propyl(1S)-1-[oxo(1H-pyrazol-5-ylamino)acetyl]pentylcarbamate], the Ki lay within 0.01 to 1 nM.

With `CCCC[C@H](NC(=O)O[C@H](Cn1cnc(-c2cc(C(F)(F)F)cc(C(F)(F)F)c2)c1)C(C)(C)C)C(=O)C(=O)Nc1ccn[nH]1` [Example 50, (1S)-1-({4-[3,5-bis(trifluoromethyl)phenyl]-1H-imidazol-1-yl}methyl)-2,2-dimethylpropyl(1S)-1-[oxo(1H-pyrazol-5-ylamino)acetyl]pentylcarbamate], the Ki lay in the range of 0.01 to 1 nM. Next, `CCCC[C@H](NC(=O)O[C@H](Cc1nnc(-c2ccc(C(F)(F)F)cc2)o1)C(C)(C)C)C(=O)C(=O)NN1CCOC1=O` [Example 28, (1R)-2,2-dimethyl-1-({5-[4-(trifluoromethyl)phenyl]-1,3,4-oxadiazol-2-yl}methyl)propyl(1S)-1-{oxo[(2-oxo-1,3-oxazolidin-3-yl)amino]acetyl}pentyl carbamate]: 0.01 to 1 nM. Turning to `CCCC[C@H](NC(=O)O[C@@H](Cn1cnc(-c2ccccc2)c1)C(C)(C)C)C(=O)C(=O)N[C@H](C)c1ccccc1` [Example 13, (1R)-2,2-dimethyl-1-[(4-phenyl-1H-imidazol-1-yl)methyl]propyl(1S)-1-(oxo{[(1R)-1-phenylethyl]amino}acetyl)pentylcarbamate], the Ki was in the range of 100 to 10000 nM. As for `CCCC[C@H](NC(=O)O[C@@H](Cc1nnc(-c2ccc(F)cc2)o1)C(C)(C)C)C(=O)C(=O)N[C@H](C)c1ccccc1` [Example 20, (1S)-1-{[5-(4-fluorophenyl)-1,3,4-oxadiazol-2-yl]methyl}-2,2-dimethylpropyl(1S)-1-(oxo{[(1R)-1-phenylethyl]amino}acetyl)pentylcarbamate], the figure is 100 to 10000 nM; as for `CCCC[C@H](NC(=O)O[C@@H](c1cccc(-c2ccccc2)c1)C(C)(C)C)C(=O)C(=O)Nc1ccn[nH]1` [Example 41, (1R)-1-[1,1′-biphenyl]-3-yl-2,2-dimethylpropyl(1S)-1-[oxo(1H-pyrazol-5-ylamino)acetyl]pentylcarbamate], 100 to 10000 nM; as for `CCCC[C@H](NC(=O)O[C@H](c1nnc(-c2ccncc2)o1)C(C)(C)C)C(=O)C(=O)Nc1ccn[nH]1` [Example 54, (1S)-2,2-dimethyl-1-[5-(4-pyridinyl)-1,3,4-oxadiazol-2-yl]propyl(1S)-1-[oxo(1H-pyrazol-5-ylamino)acetyl]pentylcarbamate], 0.01 to 1 nM. Next, `CCCC[C@H](NC(=O)O[C@@H](Cc1nnc(-c2ccccc2)o1)C(C)(C)C)C(=O)C(=O)N[C@H](C)c1ccccc1` [Example 16, (1S)-2,2-dimethyl-1-[(5-phenyl-1,3,4-oxadiazol-2-yl)methyl]propyl (1S)-1-(oxo{[(1R)-1-phenylethyl]amino}acetyl)pentylcarbamate]: 100 to 10000 nM; `CCCC[C@H](NC(=O)O[C@H](Cn1cnc2ccccc21)C(C)(C)C)C(=O)C(=O)Nc1ccn[nH]1` [Example 27, (1S)-1-(1H-benzimidazol-1-ylmethyl)-2,2-dimethylpropyl(1S)-1-[oxo(1H-pyrazol-5-ylamino)acetyl]pentylcarbamate]: 0.01 to 1 nM; `CCCC[C@H](NC(=O)O[C@@H](c1nnc(-c2ccc(C(F)(F)F)cc2)o1)C(C)(C)C)C(=O)C(=O)Nc1ccn[nH]1` [Example 40, (1R)-2,2-dimethyl-1-{5-[4-(trifluoromethyl)phenyl]-1,3,4-oxadiazol-2-yl}propyl(1S)-1-[oxo(1H-pyrazol-5-ylamino)acetyl]pentylcarbamate]: 100 to 10000 nM.

On to `CCCC[C@H](NC(=O)O[C@H](Cn1ccc(-c2cccnc2)n1)C(C)(C)C)C(=O)C(=O)Nc1ccn[nH]1` [Example 44, (1S)-2,2-dimethyl-1-{[3-(3-pyridinyl)-1H-pyrazol-1-yl]methyl}propyl (1S)-1-[oxo(1H-pyrazol-5-ylamino)acetyl]pentylcarbamate], for which the Ki was in the range of 0.01 to 1 nM.

In the case of `CCCC[C@H](NC(=O)O[C@H](Cn1cnc(-c2ccc(F)cc2)c1)C(C)(C)C)C(=O)C(=O)N[C@H](C)c1ccccc1` [Example 6, (1S)-1-{[4-(4-fluorophenyl)-1H-imidazol-1-yl]methyl}-2,2-dimethylpropyl (1S)-1-(oxo{[(1R)-1-phenylethyl]amino}acetyl)pentylcarbamate], the Ki was in the range of 0.01 to 1 nM. Next, `CCCC[C@H](NC(=O)O[C@H](Cn1ccc(-c2cccnc2)n1)C(C)(C)C)C(=O)C(=O)Nc1nccs1` [Example 33, (1S)-2,2-dimethyl-1-{[3-(3-pyridinyl)-1H-pyrazol-1-yl]methyl}propyl(1S)-1-[oxo(1,3-thiazol-2-ylamino)acetyl]pentylcarbamate]: 0.01 to 1 nM.

For `CCCC[C@H](NC(=O)O[C@H](Cc1nnc(-c2ccc(F)cc2)o1)C(C)(C)C)C(=O)C(=O)NCc1ccncc1` [Example 24, (1R)-1-{[5-(4-fluorophenyl)-1,3,4-oxadiazol-2-yl]methyl}-2,2-dimethylpropyl(1S)-1-{oxo[(4-pyridinylmethyl)amino]acetyl}pentylcarbamate], the inhibition constant (Ki) was in the range of 1 to 100 nM.
